Tests used:
[1] = (§1) The drug is tested on Z-003 corresponding to pig gut metagenome with ENA study accession number: PRJEB37062 and ENA sample accession number: ERS12561803 for biotransformation under anaerobic condition. The drug concentrations were measured over 9 timepoints collected between 0 and 24 hours of incubation by liquid-chromatography-coupled mass spectrometry (LC–MS); details: 2 µM
[2] = as §1, with “WLS-073” for “Z-003”, “human” for “pig”, “ERS12561749” for “ERS12561803”; details: 2 µM
[3] = as §1, with “Z-008” for “Z-003”, “to” for “to pig gut”, “ERS12561808” for “ERS12561803”; details: 2 µM
[4] = as §1, with “WLS-090” for “Z-003”, “human” for “pig”, “ERS12561753” for “ERS12561803”; details: 2 µM
[5] = as §1, with “WLS-370” for “Z-003”, “human” for “pig”, “ERS12561793” for “ERS12561803”; details: 2 µM
[6] = as §1, with “Z-021” for “Z-003”, “to” for “to pig gut”, “ERS12561820” for “ERS12561803”; details: 2 µM
[7] = as §1, with “WLS-077” for “Z-003”, “human” for “pig”, “ERS12561750” for “ERS12561803”; details: 2 µM
[8] = human gut metagenome, 24 h, 2 µM
[9] = human gut metagenome, 24 h, 2 µM; remark: listed apart in the source
Also: call rule not given here.

| SMILES | Bacterial Biotransformation [1] | Bacterial Biotransformation [2] | Bacterial Biotransformation [3] | Bacterial Biotransformation [4] | Bacterial Biotransformation [5] | Bacterial Biotransformation [6] | Bacterial Biotransformation [7] | Bacterial Biotransformation [8] | Bacterial Biotransformation [9] |
| --- | --- | --- | --- | --- | --- | --- | --- | --- | --- |
| CC(C)OC(=O)C(C)(C)Oc1ccc(C(=O)c2ccc(Cl)cc2)cc1 [FENOFIBRATE] | Compound metabolized | Compound NOT metabolized | Compound metabolized | Compound metabolized | Compound metabolized | Compound NOT metabolized | Compound NOT metabolized | Compound NOT metabolized | Compound NOT metabolized |
| CCCCCOC(=O)Nc1nc(=O)n([C@@H]2O[C@H](C)[C@@H](O)[C@H]2O)cc1F [CAPECITABINE] | Compound metabolized | Compound metabolized | Compound NOT metabolized | Compound metabolized | Compound metabolized | Compound metabolized | Compound metabolized | Compound metabolized | Compound NOT metabolized |
| OC(CCN1CCCCC1)(c1ccccc1)C1CC2C=CC1C2 (stereo not drawn) [BIPERIDEN] |  | Compound NOT metabolized |  | Compound metabolized | Compound metabolized |  | Compound NOT metabolized | Compound NOT metabolized | Compound NOT metabolized |
| COc1ccc2[nH]c([S+]([O-])Cc3ncc(C)c(OC)c3C)nc2n1 (stereo not drawn) [TENATOPRAZOLE] | Compound metabolized | Compound metabolized | Compound metabolized |  | Compound metabolized | Compound NOT metabolized | Compound NOT metabolized | Compound NOT metabolized | Compound metabolized |
| CN1CCc2cccc3c2[C@H]1Cc1ccc(O)c(O)c1-3 [APOMORPHINE] | Compound metabolized | Compound NOT metabolized |  | Compound NOT metabolized | Compound NOT metabolized | Compound NOT metabolized | Compound NOT metabolized |  | Compound NOT metabolized |
| OC(Cn1cncn1)(Cn1cncn1)c1ccc(F)cc1F [FLUCONAZOLE] | Compound metabolized | Compound NOT metabolized | Compound NOT metabolized | Compound metabolized | Compound NOT metabolized | Compound metabolized | Compound NOT metabolized | Compound NOT metabolized | Compound NOT metabolized |
| Cc1ccc(-c2cc(C(F)(F)F)nn2-c2ccc(S(N)(=O)=O)cc2)cc1 [CELECOXIB] | Compound NOT metabolized | Compound metabolized | Compound NOT metabolized | Compound NOT metabolized | Compound metabolized | Compound NOT metabolized | Compound metabolized | Compound NOT metabolized | Compound NOT metabolized |
| CC(=O)OCC(=O)[C@@]12N=C(C)O[C@@H]1C[C@H]1[C@@H]3CCC4=CC(=O)C=C[C@]4(C)[C@H]3[C@@H](O)C[C@@]12C [DEFLAZACORT] | Compound metabolized | Compound metabolized | Compound metabolized | Compound metabolized | Compound metabolized | Compound metabolized | Compound metabolized | Compound metabolized | Compound metabolized |
| CN1CCN(CC/C=C2/c3ccccc3Sc3ccc(S(=O)(=O)N(C)C)cc32)CC1 [THIOTHIXENE] |  | Compound metabolized |  | Compound metabolized | Compound metabolized |  | Compound NOT metabolized | Compound metabolized | Compound NOT metabolized |
| COc1c2occc2cc2ccc(=O)oc12 [METHOXSALEN] | Compound metabolized |  | Compound metabolized | Compound metabolized | Compound metabolized | Compound metabolized | Compound metabolized | Compound metabolized | Compound metabolized |
| COC(=O)C1=C(C)NC(C)=C(C(=O)OC(C)C)C1c1cccc2nonc12 (stereo not drawn) [ISRADIPINE] | Compound metabolized | Compound NOT metabolized |  | Compound metabolized | Compound metabolized |  | Compound NOT metabolized | Compound metabolized | Compound NOT metabolized |
| C#C[C@]1(O)CC[C@H]2[C@@H]3CCC4=Cc5oncc5C[C@]4(C)[C@H]3CC[C@@]21C [DANAZOL] | Compound metabolized | Compound metabolized | Compound metabolized | Compound metabolized |  | Compound metabolized | Compound metabolized |  |  |
| O=C1[C@H](CC[C@H](O)c2ccc(F)cc2)[C@@H](c2ccc(O)cc2)N1c1ccc(F)cc1 [EZETIMIBE] | Compound NOT metabolized | Compound metabolized | Compound NOT metabolized | Compound metabolized | Compound metabolized |  | Compound metabolized | Compound NOT metabolized | Compound NOT metabolized |
| CCC1(c2ccc(N)cc2)CCC(=O)NC1=O (stereo not drawn) [AMINOGLUTETHIMIDE] | Compound NOT metabolized | Compound NOT metabolized | Compound NOT metabolized | Compound NOT metabolized | Compound NOT metabolized |  | Compound NOT metabolized | Compound NOT metabolized | Compound NOT metabolized |
| Cc1cn([C@H]2C[C@H](N=[N+]=[N-])[C@@H](CO)O2)c(=O)[nH]c1=O [ZIDOVUDINE] | Compound NOT metabolized | Compound NOT metabolized | Compound NOT metabolized | Compound NOT metabolized | Compound NOT metabolized | Compound NOT metabolized |  | Compound metabolized | Compound NOT metabolized |
| CN(C)CCc1c[nH]c2ccc(Cn3cncn3)cc12.O=C(O)c1ccccc1 [RIZATRIPTAN BENZOATE] | Compound NOT metabolized | Compound NOT metabolized | Compound NOT metabolized | Compound NOT metabolized | Compound NOT metabolized | Compound NOT metabolized | Compound NOT metabolized | Compound NOT metabolized |  |
| Cc1nc2n(c(=O)c1CCN1CCC(c3noc4cc(F)ccc34)CC1)CCCC2 [RISPERIDONE] | Compound metabolized |  | Compound metabolized | Compound metabolized | Compound metabolized | Compound metabolized | Compound metabolized |  | Compound metabolized |
| C[C@@H]1CC[C@H]2[C@@H](C)C(=O)O[C@@H]3O[C@@]4(C)CC[C@@H]1[C@]32OO4 [ARTEMISININ] |  | Compound metabolized |  | Compound metabolized | Compound metabolized | Compound metabolized | Compound metabolized | Compound metabolized | Compound metabolized |
| CN1C[C@H](C(=O)N[C@]2(C)O[C@@]3(O)[C@@H]4CCCN4C(=O)[C@H](Cc4ccccc4)N3C2=O)C=C2c3cccc4[nH]cc(c34)C[C@H]21.CN1C[C@H](C(=O)N[C@]2(C)O[C@@]3(O)[C@@H]4CCCN4C(=O)[C@H](Cc4ccccc4)N3C2=O)C=C2c3cccc4[nH]cc(c34)C[C@H]21.O=C(O)C(O)C(O)C(=O)O [ERGOTAMINE TARTRATE] |  | Compound NOT metabolized | Compound NOT metabolized | Compound metabolized | Compound metabolized |  | Compound metabolized | Compound metabolized | Compound NOT metabolized |
| CC(=O)O[C@]1(C(C)=O)CC[C@H]2[C@@H]3C=C(Cl)C4=CC(=O)[C@@H]5C[C@@H]5[C@]4(C)[C@H]3CC[C@@]21C [CYPROTERONE ACETATE] | Compound metabolized | Compound metabolized |  | Compound metabolized | Compound metabolized |  | Compound metabolized | Compound metabolized | Compound metabolized |
